Legend:
[1] = biological target: T1, human recombinant D3 receptor (Homo sapiens, UniProt P35462); assay: Dopamine D3 receptor binding test; settings: [3H]methyl-spiperone 0.3 nM, human recombinant D3 receptor expressed in CHO cells; read-out: Affinity of the compound for each receptor (Ki value, nM) D3
T1 construct: expressed in transfected cells; host or cells: CHO
Description: Dopamine D3 Receptor Binding Test
[^3H]methyl-spiperone (0.3 nM) was used as the ligand, and (+)-butaclamol (10 μM) was used to determine the non-specific binding, and the binding assay was performed on human recombinant D3 receptor (expressed in CHO cells).

5-HT2A receptor = biological target: T2, 5-HT2A receptor (Homo sapiens, UniProt P28223); assay: 5-HT2A receptor binding test; settings: [3H]-Ketanserin, 5-HT2A receptor expressed in HEK293 cells; read-out: Affinity of the compound for each receptor (Ki value, nM) 5-HT2A
T2 construct: expressed in transfected cells; host or cells: HEK293
Text: 5-HT2A Receptor Binding Test
Beckman LS-6500 multifunctional liquid scintillation counter.
Tris-HCl reaction buffer (pH 7.7) was used to resuspend in the experiment.

H1 receptor = biological target: T3, H1 receptor (Homo sapiens, UniProt P35367); assay: H1 receptor binding test; settings: 1 nM [3H]pyrilamine, HEK-293 cell membrane homogenate; read-out: Affinity of the compound for H1 receptor (Ki value, nM) H1
T3 construct: expressed in transfected cells; host or cells: HEK-293
Description: Non-specific binding was determined in the presence of 1 μM pyrilamine.

[2] = system: mouse schizophrenic model induced by Apo.; assay: Apomorphine model experiment (stereotyped motion); assay type: in vivo, C57BL/6 mice; settings: for ED50: Mus musculus, single oral administration, apomorphine 5 mg/kg i.p., mice, read-out: Inhibition of total stereotyped motion of mouse schizophrenic model induced by Apo., ED50; for Effect (ED50) on the stereotyped behavior of mice compared with cariprazine: apomorphine model, oral
Description: 1. Apomorphine Model Experiment
1) 4 point, continuous biting;
2) 3 point, the cage lid was bit at least once during observation;
3) 2 point, the cage chassis or cage wall was licked at least once during observation;
4) 1 point, compulsive sniffing and bowing activities were appeared;
5) 0 point, no of the above activities.
The total score of the mice was calculated for the above behaviors within 70 min, and the improvement rate was calculated according to the following formula.
During the experiment, the clinical response symptoms of the animals were recorded.
All data were expressed as x±SEM, processed with the 11.5 software statistical package, and t-test and one-way analysis of variance were performed for the comparison of the means of the two samples, with P<0.05 as a significant difference.

[3] = Acute toxicity experiment, single oral administration; settings: ICR, mouse, in vivo, single oral administration, ICR mice, read-out: MTD (maximum tolerance)
Description: Acute Toxicity Experiments of the Compound
2) Solvent preparation: An appropriate amount of Tween-80 was weighed and diluted with deionized water to a concentration of […] (g/v) Tween-80.
4) Route of administration: The administration route of the test samples and the solvent control group (0.5% Tween-80) was oral administration.
5) Frequency of administration: Single administration, fasting overnight before administration.
6) Dosing capacity: 20 mL/kg.
[…]; the observation period was 2 to 6 days, twice a day, once in the morning and once in the afternoon.
The observation content includes, but is not limited to, general condition, behavioral activity, gait posture, eye, mouth, nose, gastrointestinal tract, skin hair, urogenital tract.
Body weight data were expressed as mean±standard deviation, and were compared between groups using Levene's test and one-way ANOVA. If there were differences, Dunnet t test was used.
In the MTD test, the tolerance of the animals to the drug was investigated, and the maximum tolerated dose was reached when the animals were dying frequently.

D2 receptor = D2 receptor (Homo sapiens, UniProt P14416); assay: Dopamine D2 receptor binding test
Description: Dopamine D2 Receptor Binding Test
In this experiment, HEK293 cells were transfected with plasmid vector containing D2 receptor protein gene, and calcium phosphate transfection method was used and after transfection, the cells were cultured in a culture solution containing G418, and the cell monoclonal and radioligand binding experiments were selected, and finally a stable cell line which could stably express D2 receptor protein was obtained.
HeK-293 cells were infected with recombinant viruses containing the above various genes respectively, and after 48-72 hours, the receptor proteins were expressed in large quantities on the membrane, and the cells were centrifuged at 1000 rpm for 5 min and then the culture solution was discarded, and the cells were collected, and stored in a −20° C. refrigerator for later use. Tris-HCl reaction buffer (pH=7.5) was used to resuspend in the experiment.
On the Millipore cell sample collector, the mixture was quickly filtrated under reduced pressure through GF/C glass fiber filter paper, and eluted with 3 mL of eluent (50 mMTris-HCl, pH 7.5) for 3 times, then dried under microwave for 5 to 6 min. The filter paper was moved into a 0.5 mL centrifuge tube, and 500 μL of lipid-soluble scintillation solution was added. The mixture was kept in the dark for more than 30 min, and the radioactivity intensity was determined by counting. […] Two replicate tubes were made for each experiment of compound, and two separate experiments were performed.
Two tubes were tested for each concentration and two independent tests were performed for each compound.

[4] = system: mouse model of schizophrenia induced by MK-801; assay: MK-801 model experiment (open-field motion); settings: for ED50: Mus musculus, 1.5 h, read-out: Effect on the total distance of open-field motion in mouse model of schizophrenia induced by MK-801, ED50; for Improvement rate on open-field motion of mice compared with cariprazine: MK-801 model, oral
Description: An acute mode of administration was used in the experiment. The experimental mice were randomly divided into groups and put into a spontaneous activity box to adapt for 5-10 minutes before the experiment. […] The data were expressed as mean±standard error (Mean±SEM), and were analyzed using GraphPad Prism software, and data analysis was performed using t-test, and a significant difference was considered to exist when P<0.05.

D2 receptor, sequence (P14416 whole entry): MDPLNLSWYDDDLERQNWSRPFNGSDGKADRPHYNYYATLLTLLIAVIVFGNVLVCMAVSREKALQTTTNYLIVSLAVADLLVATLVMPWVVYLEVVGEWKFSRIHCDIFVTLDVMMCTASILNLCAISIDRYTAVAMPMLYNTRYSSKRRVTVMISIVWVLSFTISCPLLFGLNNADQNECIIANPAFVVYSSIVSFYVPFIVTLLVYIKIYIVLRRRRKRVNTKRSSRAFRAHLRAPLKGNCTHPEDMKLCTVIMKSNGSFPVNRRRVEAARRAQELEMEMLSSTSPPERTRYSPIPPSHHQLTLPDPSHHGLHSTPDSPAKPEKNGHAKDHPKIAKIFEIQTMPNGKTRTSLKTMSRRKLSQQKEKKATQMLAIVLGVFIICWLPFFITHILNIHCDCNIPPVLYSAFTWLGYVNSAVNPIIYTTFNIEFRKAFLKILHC
T1 sequence (P35462 whole entry): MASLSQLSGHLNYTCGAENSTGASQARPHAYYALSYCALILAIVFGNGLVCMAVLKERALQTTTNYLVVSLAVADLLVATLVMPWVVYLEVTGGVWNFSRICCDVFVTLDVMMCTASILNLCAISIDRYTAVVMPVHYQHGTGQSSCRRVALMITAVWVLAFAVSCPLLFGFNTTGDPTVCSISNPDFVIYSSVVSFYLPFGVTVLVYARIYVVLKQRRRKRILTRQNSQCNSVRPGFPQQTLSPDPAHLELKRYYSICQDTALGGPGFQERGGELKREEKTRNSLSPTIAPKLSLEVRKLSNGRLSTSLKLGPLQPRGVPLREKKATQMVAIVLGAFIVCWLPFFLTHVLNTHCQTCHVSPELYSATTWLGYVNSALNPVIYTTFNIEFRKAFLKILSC
T3 sequence (P35367 whole entry): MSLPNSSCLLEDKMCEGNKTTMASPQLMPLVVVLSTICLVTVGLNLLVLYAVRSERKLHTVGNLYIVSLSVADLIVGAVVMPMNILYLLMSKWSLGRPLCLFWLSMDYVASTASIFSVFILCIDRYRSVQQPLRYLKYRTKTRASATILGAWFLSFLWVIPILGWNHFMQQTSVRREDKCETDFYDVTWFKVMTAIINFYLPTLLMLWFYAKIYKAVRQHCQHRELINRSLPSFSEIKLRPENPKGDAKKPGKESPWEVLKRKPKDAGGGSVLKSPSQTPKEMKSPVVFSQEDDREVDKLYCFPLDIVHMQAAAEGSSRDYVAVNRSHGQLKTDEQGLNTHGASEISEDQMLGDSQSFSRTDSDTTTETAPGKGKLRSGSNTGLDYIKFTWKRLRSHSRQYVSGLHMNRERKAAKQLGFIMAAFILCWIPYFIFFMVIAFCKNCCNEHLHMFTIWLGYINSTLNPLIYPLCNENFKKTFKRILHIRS
T2 sequence (P28223 whole entry): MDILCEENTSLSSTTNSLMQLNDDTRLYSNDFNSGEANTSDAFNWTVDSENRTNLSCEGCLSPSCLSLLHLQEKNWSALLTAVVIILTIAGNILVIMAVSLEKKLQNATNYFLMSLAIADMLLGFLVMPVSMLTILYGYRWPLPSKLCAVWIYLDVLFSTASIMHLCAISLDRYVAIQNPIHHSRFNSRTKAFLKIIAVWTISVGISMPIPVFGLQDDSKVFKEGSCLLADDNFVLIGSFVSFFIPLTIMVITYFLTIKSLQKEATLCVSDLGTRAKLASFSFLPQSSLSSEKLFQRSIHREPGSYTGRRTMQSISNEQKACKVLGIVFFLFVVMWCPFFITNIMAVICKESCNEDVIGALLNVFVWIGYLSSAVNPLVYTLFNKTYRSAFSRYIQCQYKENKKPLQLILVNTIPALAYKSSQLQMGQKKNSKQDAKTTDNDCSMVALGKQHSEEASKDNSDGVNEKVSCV

Row | SMILES | Ki [1] [nM] | Ki (5-HT2A receptor) [nM] | Ki (H1 receptor) [nM] | ED50 [2] [mg/kg] | MTD [3] [mg/kg] | Ki (D2 receptor) [nM] | ED50 [4] [mg/kg] | Effect (ED50) on the stereotyped behavior of mice compared with cariprazine [2] | Improvement rate on open-field motion of mice compared with cariprazine [4]
1 | O=C(N[C@H]1CC[C@H](CCN2CCN(c3cc(-c4ccccc4)cc(N4CCOCC4)n3)CC2)CC1)c1ccco1 [Compound I-6, N-((trans)-4-(2-(4-(6-morpholino-4-phenylpyridin-2-yl)piperazin-1-yl)ethyl)cyclohexyl)furan-2-carboxamide] | 0.02 | 1 | > 1000 | 0.43 | > 2000 | 0.14 | 0.2 | – | –
2 | O=C(N[C@H]1CC[C@H](CCN2CCN(c3cc(-c4ccco4)cc(N4CCOCC4)n3)CC2)CC1)N1CCOCC1 [Compound V-5, N-(trans-4-(2-(4-(4-(furan-2-yl)-6-morpholinopyridin-2-yl)piperazin-1-yl)ethyl)cyclohexyl)morpholine-4-carboxamide] | 0.04 | 2.9 | > 1000 | 0.78 | ≥ 400 | 1 | 0.51 | – | –
3 | O=C(N[C@H]1CC[C@H](CCN2CCN(c3cc(-c4ccc(F)cc4)cc(N4CCOCC4)n3)CC2)CC1)c1cccnc1 [II-2, N-(trans-4-(2-(4-(4-(4-fluorophenyl)-6-morpholinopyridin-2-yl)piperazin-1-yl)ethyl)cyclohexyl)nicotinamide] | 0.07 | 2.4 | > 1000 | 0.08 | ≥ 400 | 0.9 | 0.07 | better effects | better
4 | O=C(N[C@H]1CC[C@H](CCN2CCN(c3cc(-c4cccnc4)cc(N4CCOCC4)n3)CC2)CC1)c1ccco1 [IV-2] | 0.03 | 1.1 | > 1000 | 0.1 | > 2000 | 0.9 | 0.05 | better effects | better
5 | O=C(N[C@H]1CC[C@H](CCN2CCN(c3cc(-c4cccs4)cc(N4CCOCC4)n3)CC2)CC1)N1CCCC1 [VI-5, N-(trans-4-(2-(4-(6-morpholino-4-(thiophen-2-yl)pyridin-2-yl)piperazin-1-yl)ethyl)cyclohexyl)tetrahydropyrrole-1-carboxamide] | 0.07 | 1.1 | > 1000 | 0.16 | > 2000 | 1 | 0.08 | better effects | –
6 | CN(C)C(=O)N[C@H]1CC[C@H](CCN2CCN(c3cc(-c4ccc[nH]4)cc(N4CCOCC4)n3)CC2)CC1 [VII-4, 1,1-dimethyl-3-(trans-4-(2-(4-(6-morpholino-4-(1H-pyrrol-2-yl)pyridin-2-yl)piperazin-1-yl)ethyl)cyclohexyl)urea] | 0.03 | 1.1 | > 1000 | 0.2 | ≥ 400 | 0.6 | 0.25 | better effects | –
